Where a name gives a salt, the structure may show the parent alone.
Key:
[1] = tested on: mice; experiment: Porsolt test in mice; assay type: in vivo; settings: Mus musculus, dose required to increase mobility by 50%
Procedure: This test was carried out according to the procedure described in Porsolt, R. D. (1981). Behavioural despair. In: Antidepressants: Neurochemical, Behavioural and Clinical Perspectives, ed. […] New York: Raven Press.
(§1) The test compounds were dissolved in deionised water. Control groups of mice were treated with either deionised water or the standard antidepressant, amitriptyline (30 mg/kg p.o.).
Data from the Porsolt test were analysed in two ways.

[2] = molecular target: T1, dopamine reuptake site (Rattus norvegicus, UniProt P23977); experiment: Dopamine reuptake site binding assay in rat brain ([3H]GBR 12935); settings: for Hill slope, DA reuptake site: rat striatum, [3H]GBR 12935, mean ± SEM
T1 construct: from tissue; host or cells: rat striatal membranes (Sprague-Dawley derived CD rats)
Procedure: (§2) The IC50 was calculated using the following formula: [formula]
Tissue was homogenised in ice-cold 0.32 M sucrose (1:80 w/v) using a motor driven teflon pestle (12 strokes, 800 rpm) and centrifuged at 1000 g for 12 minutes. […] All centrifugations were carried out at 4° C.

[3] = molecular target: T2, dopamine reuptake site (Homo sapiens, UniProt Q01959); experiment: Dopamine reuptake site binding assay in human brain ([3H]GBR 12935); settings: for Hill slope, DA reuptake site: human putamen, [3H]GBR 12935, mean ± SEM
T2 construct: Frozen putamen was homogenised in ice-cold 0.25 M sucrose (1:40 w/v); from tissue; host or cells: human post-mortem putamen membranes
Procedure: as §2
The membrane pellet was resuspended in Tris buffer (1:40 w/v) and incubated at 37° C. for 10 min (to remove endogenous neurotransmitters) and recentrifuged at 35,000 g for 10 minutes. […] All centrifugations were carried out at 4° C.

[4] = tested on: mice; experiment: Reserpine reversal screen in mice; assay type: in vivo; settings: Mus musculus, ip, reversal of reserpine-induced effects, reserpine 10 mg/kg i.p., read-out: ED50, Reserpine test in mice
Procedure: This was carried as described in U.S. Pat. No. 4,746,680 except that the dose of reserpine was 10 mg/kg (i.p.).
as §1
(§3) Data from the reserpine reversal screen in mice and the reserpine prevention test in rats were used to calculate ED50 values for the reversal and prevention of reserpine-induced effects respectively.

[5] = molecular target: T3, noradrenaline reuptake site (Rattus norvegicus, UniProt Q63380); experiment: Noradrenaline reuptake site binding assay in rat brain ([3H]nisoxetine); settings: for Hill slope, NA reuptake site: rat frontal cortex, [3H]nisoxetine, mean ± SEM
T3 construct: Adult male CD rats were killed by cervical dislocation, brains removed and frontal cortices (120-150 mg) immediately dissected; from tissue; host or cells: rat frontal cortex membranes (Sprague-Dawley derived CD rats)
Procedure: as §2
The supernatant was discarded and the pellet rehomogenised in Tris buffer, 1:60 w/v, and centrifuged at 40,000 g for 10 minutes. This step was repeated a further twice so that, in total, the brain tissue was homogenised and centrifuged four times. […] All centrifugations were carried out at 4° C.

[6] = tested on: rats; experiment: Prevention of reserpine-induced ptosis in rats; assay type: in vivo; settings: Rattus norvegicus, read-out: ED50, Reserpine test in rats
Procedure: A further standard test for antidepressants but relying on the ability of compounds to prevent rather than reverse reserpine-induced effects in rodents.
The compounds were tested as described in Prog. Neuro-Psychopharmacol. & Biol. Psychiat., 12, 575-584, Buckett et al. Rats were housed five per cage rather than six per cage and ptosis was assessed twice during 60 sec rather than during 30 sec.
as §3

[7] = molecular target: T4, noradrenaline reuptake site (Homo sapiens, UniProt P23975); experiment: Noradrenaline reuptake site binding assay in human brain ([3H]nisoxetine); settings: human thalamus, mean ± SEM
T4 construct: Frozen thalamus was homogenised in ice-cold 0.25 M sucrose (1:40 w/v); from tissue; host or cells: human post-mortem thalamus membranes
Procedure: as §2
The pellet was resuspended in Tris buffer (1:40 w/v) and incubated at 37° C. for 10 min (to remove endogenous neurotransmitters) and recentrifuged at 35,000 g for 10 minutes. […] All centrifugations were carried out at 4° C.

T2 sequence (Q01959 whole entry): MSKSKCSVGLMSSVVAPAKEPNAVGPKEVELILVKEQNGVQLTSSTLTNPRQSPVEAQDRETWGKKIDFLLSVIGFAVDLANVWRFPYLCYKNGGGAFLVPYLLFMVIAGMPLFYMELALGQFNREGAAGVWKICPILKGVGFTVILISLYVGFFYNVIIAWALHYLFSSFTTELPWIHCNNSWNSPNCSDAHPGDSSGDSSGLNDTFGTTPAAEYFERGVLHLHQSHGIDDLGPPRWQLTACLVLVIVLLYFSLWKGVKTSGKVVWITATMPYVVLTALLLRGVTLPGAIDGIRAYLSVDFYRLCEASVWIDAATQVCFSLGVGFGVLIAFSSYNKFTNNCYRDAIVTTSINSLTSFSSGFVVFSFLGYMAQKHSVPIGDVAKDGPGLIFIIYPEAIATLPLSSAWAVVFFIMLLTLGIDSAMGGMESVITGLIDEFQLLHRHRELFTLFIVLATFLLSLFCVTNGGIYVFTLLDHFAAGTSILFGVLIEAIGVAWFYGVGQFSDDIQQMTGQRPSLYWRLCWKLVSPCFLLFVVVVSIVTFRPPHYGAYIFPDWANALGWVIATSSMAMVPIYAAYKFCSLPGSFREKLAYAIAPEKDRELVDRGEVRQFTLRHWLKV
T4 sequence (P23975 whole entry): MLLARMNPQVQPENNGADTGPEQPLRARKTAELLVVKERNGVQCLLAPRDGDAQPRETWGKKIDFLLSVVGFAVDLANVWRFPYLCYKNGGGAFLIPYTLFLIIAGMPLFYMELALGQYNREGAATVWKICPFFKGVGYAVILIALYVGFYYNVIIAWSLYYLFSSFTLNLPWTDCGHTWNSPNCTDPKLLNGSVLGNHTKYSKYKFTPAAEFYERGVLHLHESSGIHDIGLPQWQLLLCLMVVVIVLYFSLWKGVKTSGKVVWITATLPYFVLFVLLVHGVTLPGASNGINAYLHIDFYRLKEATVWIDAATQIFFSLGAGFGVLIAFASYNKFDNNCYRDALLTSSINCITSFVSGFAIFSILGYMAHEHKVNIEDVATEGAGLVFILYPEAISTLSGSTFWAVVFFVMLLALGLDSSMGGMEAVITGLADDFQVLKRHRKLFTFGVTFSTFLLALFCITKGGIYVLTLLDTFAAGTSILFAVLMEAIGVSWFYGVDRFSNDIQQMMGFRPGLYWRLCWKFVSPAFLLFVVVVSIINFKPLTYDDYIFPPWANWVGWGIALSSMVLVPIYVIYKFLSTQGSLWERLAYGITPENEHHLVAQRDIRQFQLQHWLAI
T1 sequence (P23977 whole entry): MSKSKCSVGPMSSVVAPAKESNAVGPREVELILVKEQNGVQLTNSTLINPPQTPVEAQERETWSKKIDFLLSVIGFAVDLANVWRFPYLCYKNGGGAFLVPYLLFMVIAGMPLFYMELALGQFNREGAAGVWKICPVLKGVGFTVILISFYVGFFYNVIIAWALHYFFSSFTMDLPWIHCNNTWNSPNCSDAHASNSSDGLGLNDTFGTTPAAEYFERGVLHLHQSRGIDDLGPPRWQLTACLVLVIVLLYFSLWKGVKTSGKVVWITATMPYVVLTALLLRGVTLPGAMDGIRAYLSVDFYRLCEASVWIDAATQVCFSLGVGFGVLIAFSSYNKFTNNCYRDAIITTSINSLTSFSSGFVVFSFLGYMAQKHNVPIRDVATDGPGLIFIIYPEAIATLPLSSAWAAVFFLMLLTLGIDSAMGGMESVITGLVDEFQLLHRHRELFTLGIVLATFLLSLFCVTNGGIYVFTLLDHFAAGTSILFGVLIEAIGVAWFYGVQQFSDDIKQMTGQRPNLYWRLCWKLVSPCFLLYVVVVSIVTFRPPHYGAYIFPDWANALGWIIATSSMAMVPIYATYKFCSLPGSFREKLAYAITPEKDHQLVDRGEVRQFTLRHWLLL
T3 sequence (Q63380 1-617): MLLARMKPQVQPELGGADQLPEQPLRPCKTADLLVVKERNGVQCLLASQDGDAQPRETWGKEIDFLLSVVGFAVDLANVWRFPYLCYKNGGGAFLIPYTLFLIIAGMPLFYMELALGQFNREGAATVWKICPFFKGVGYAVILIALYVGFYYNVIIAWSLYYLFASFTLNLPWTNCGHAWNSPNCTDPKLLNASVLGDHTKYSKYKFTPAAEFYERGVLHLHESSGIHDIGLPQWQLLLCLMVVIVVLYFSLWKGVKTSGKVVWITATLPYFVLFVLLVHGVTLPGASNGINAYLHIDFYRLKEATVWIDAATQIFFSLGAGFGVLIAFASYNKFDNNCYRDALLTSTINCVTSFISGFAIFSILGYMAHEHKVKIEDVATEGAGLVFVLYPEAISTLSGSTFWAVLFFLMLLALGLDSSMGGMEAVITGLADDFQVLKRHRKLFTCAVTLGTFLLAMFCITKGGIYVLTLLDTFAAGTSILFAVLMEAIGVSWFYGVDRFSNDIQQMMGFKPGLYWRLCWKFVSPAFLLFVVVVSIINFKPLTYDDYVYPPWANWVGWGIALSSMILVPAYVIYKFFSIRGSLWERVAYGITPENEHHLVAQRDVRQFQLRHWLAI

SMILES | ED50 [1] [mg/kg] | Ki [2] [nM] | Hill slope, DA reuptake site [2] | Ki [3] [nM] | Hill slope, DA reuptake site [3] | ED50 [4] [mg/kg] | Ki [5] [nM] | Hill slope, NA reuptake site [5] | ED50 [6] [mg/kg] | Hill slope, NA reuptake site [7]
CC(C)C[C@@H](N(C)C)C1(c2ccc(Cl)cc2)CCC1 [(+)-Sibutramine, hydrochloride] | 2.4 | 1650 ± 175 | [1.74 ± 0.20] | 897 ± 125 | [1.29 ± 0.04] | ~1 | 3040 ± 233 | [1.02 ± 0.06] | 0.7 | [0.97 ± 0.13]
CC(C)C[C@H](N(C)C)C1(c2ccc(Cl)cc2)CCC1.Cl [(−)-Sibutramine, (−)-N-{1-[1-(4-chlorophenyl)cyclobutyl]-3-methylbutyl}-N,N-dimethylamine hydrochloride] | 9.8 | 4480 ± 65 | [2.07 ± 0.16] | 2890 ± 363 | [1.25 ± 0.05] | ~30 | 23800 ± 615 | [1.02 ± 0.08] | 59 | [1.30 ± 0.04]
CC(C)CC(N(C)C)C1(c2ccc(Cl)cc2)CCC1 (racemic) [Sibutramine, N,N-dimethyl-1-[1-(4-chlorophenyl)cyclobutyl]-3-methylbutylamine] | 1.8 | 3070 ± 50 | [1.14 ± 0.04] | 943 ± 64 | [1.15 ± 0.04] | 1.8 | 86 ± 10 | [1.02 ± 0.02] | ~1.5 | [1.34 ± 0.01]

From patent US6552087B1 (Abbott GmbH & Co. KG, priority 1999, dated 2003)
